We go through eight compounds from patent US8664249B2, “Tetrasubstituted benzenes” (EnVivo Pharmaceuticals, Inc., priority 2007, dated 2014).

Where only a bound is given, the exact number is not on record here.

As usually defined, the melting point is the temperature of the solid-liquid transition. What is called EC50 is the concentration needed to bring the measured effect to its halfway point.

One data set deals with Aβ. The data set is described as follows: In vivo Aβ lowering in C57BL/6 mice (FIG. 1). As to conditions: one dose at 30 mg/kg in Solutol HS 15:Ethanol:Water (15:10:75), Aβ measured at 3 hours. The arrangement: species or system mouse. The source says:
Practitioners will also know that similar methods can also be applied to other species such as mice (including transgenic strains such as Tg2576), guinea pig, dog and monkey.

The next data set concerns the target γ-secretase (Homo sapiens, UniProt P49768). The data set is described as follows: Aβ42 lowering in HEK-293 cells overexpressing APP (ELISA of conditioned medium). It is filed as cell-based. (In general: ELISA stands for enzyme-linked immunosorbent assay.)

Experimental for γ-secretase: Transfected cells overexpressing β-APP or its equivalent producing the Aβ peptide can be used to monitor the effects of synthetic compounds on the production of Aβ.
To analyze a compound's effects on the concentrations of the various products of the γ-secretase cleavage activity, the Aβ peptides, various methods known to a person skilled in the art are available.
Cells were grown to approximately 70-80% confluency subsequent to the addition of test compounds. The growth media was aspirated or removed, the cells washed, and replaced with 100 μl of compound, appropriately diluted in serum free media. The plates are then incubated for 16-18 hours at 37° C.
Conditioned Medium samples are removed for analysis/quantitation of the various Aβ peptide levels by differential ELISA's as described in accompanying instructions to the kits.

As to `CC(C)CC(C(=O)O)c1cc(OCC2CC2)c(-c2ccc(C(F)(F)F)cc2)cc1F` (centres unmarked) [Example 724, 2-(2-cyclopropylmethoxy-5-fluoro-4′-trifluoromethyl-biphenyl-4-yl)-4-methyl-pentanoic acid], the melting point was in the range of 110 to 111 °C. As for `CC(C)CC(C(=O)O)c1cc(OCC2CC2)c(-c2ccc3nonc3c2)cc1F` (centres unmarked) [Example 754, 2-(4-(benzo[c][1,2,5]oxadiazol-5-yl)-5-(cyclopropylmethoxy)-2-fluorophenyl)-4-methylpentanoic acid], the melting point is 110 to 111 °C. For `CC(C)CC(C(=O)O)c1cc(-c2ccc(C(F)(F)F)cc2)c(OCC2CC2)c(C(F)(F)F)c1` (centres unmarked) [Example 1055, 2-(6-Cyclopropylmethoxy-5,4′-bis-trifluoromethyl-biphenyl-3-yl)-4-methyl-pentanoic Acid], the melting point lay in the range of 148 to 149 °C. Consider `CC(C)c1ccc(-c2cc(C(CC3CC3)C(=O)O)cc(Cl)c2OCC(F)(F)F)cc1` (centres unmarked) [Example 1301, 2-(5-chloro-4′-isopropyl-6-(2,2,2-trifluoroethoxy)biphenyl-3-yl)-3-cyclopropylpropanoic acid], for which, in the data set on Aβ, the “effect on Aβ after administration” value was “desirable effect on Aβ”. `O=C(O)C1(c2cc(Cl)c(-c3ccc(C(F)(F)F)cc3)c(OCC(F)(F)F)c2)CCCC1` [Example 1837, 1-(2-chloro-6-(2,2,2-trifluoroethoxy)-4′-(trifluoromethyl)biphenyl-4-yl)cyclopentanecarboxylic acid] had an EC50 on γ-secretase of less than 1 µM. For `CC(C)CC(C(=O)O)c1cc(Cl)c(-c2ccc(C(F)(F)F)cc2)c(OCC2CC2)c1` (centres unmarked) [Example 1904, 2-(2-Chloro-6-cyclopropylmethoxy-4′-trifluoromethyl-biphenyl-4-yl)-4-methyl-pentanoic acid], the melting point lay within 115 to 116 °C. On the same count and under the same terms, the result for `CC(C)CC(C(=O)O)c1cc(Cl)c(-c2ccc(Cl)cc2)c(OCC2CC2)c1` (centres unmarked) [Example 3200, 2-(2,4′-Dichloro-6-cyclopropylmethoxy-biphenyl-4-yl)-4-methyl-pentanoic acid] reads 52 to 53 °C; that for `CC(C)CC(C(=O)O)c1cc(Cl)c(-c2ccc(Cl)c(Cl)c2)c(OCC2CC2)c1` (centres unmarked) [Example 3201, 4-Methyl-2-(2,3′,4′-trichloro-6-cyclopropylmethoxy-biphenyl-4-yl)-pentanoic acid], 118 to 119 °C.
